Test results published in patent publication US20260234159A1, “SMALL MOLECULE TREATMENT OF FATTY LIVER DISEASE AND HCC” (SCANDIEDGE THERAPEUTICS AB, priority 2023, published 2026).

Key:
Format in all cases: cell-based, human
c-Myc = assay: Nuclear protein western blot, c-Myc; details: 10 μM, 2 days
Procedure: (§1) HepG2 cells were seeded into a 6-well plate at 400,000 cells per well. After treatment with 10 μM of JNK-IN-5A and its derivatives for two days, lysates were harvested with CelLytic M (C2978, Sigma-Aldrich). 20 μg lysate was prepared with 2× Laemmli Sample Buffer (1610737, Biorad). SDS PAGE were performed using Mini-PROTEAN® TGX™ Precast Gels (Bio-Rad) and transferred using Trans-Blot® Turbo™ Transfer System (Bio-Rad). Primary antibody, PARP (95425, Cell signalling), Caspase 3 (ab32042, abcam), Bcl-2 (ab182858), STAT1 (HPA000982, Merk), PKL (06653, Sigma), PKM (4053S, Cell signalling), GAPDH (ab8245, abcam), P53 (ab32389, abcam), p21 (ab109199, abcam), p-S349 p62 (ab211324, abcam), p62 (ab109012, abcam), c-Myc (ab32072, abcam), GPX4 (ab125066, abcam), MMP9 (MA5-32705, Invitrogen), β-actin (ab8227, abcam), and α-tubulin (ab7291, abcam) were blotted overnight and Goat Anti-Rabbit HRP (ab205718) and goat anti-mouse IgG-HRP (sc2005, Santa Cruz Biotechnology, Inc.) were blotted for secondary antibody for one hour. ImageQuantTMLAS 500 (29-0050-63, GE) was used to detect protein bands.

HepG2 cells [1] = assay: RNA sequencing, GSEA and PROGENy pathway analysis
Procedure: RNA samples for RNA sequencing were extracted with RNeasy Plus Mini Kit (74134, QIAGEN). RIN score of total RNA samples was measured using RNA 6000 Nano kit (5067-1511, Agilent). 2100 Bioanalyzer Instrument (G2939BA, Agilent) was used for RIN score test using electrophoresis. Samples with a […] were submitted to SZA Omics, Istanbul for RNA sequencing analysis.
The quality, quantity, and RNA integrity number (RIN) of the samples were assessed with NanoDrop (Thermo Fisher, USA), and Bioanalyzer (2100, Agilent Technology, USA). For the RNA samples, the ratio of absorbance at 260 and 280 nm (A260/280) of […], A260/230 of 2.0-2.2, and RIN>8.0 are acceptable. All samples passed the quality control.
The Illumina Stranded Total RNA Prep, Ligation with Ribo-Zero Plus kit was used for the construction of NGS libraries from the samples with acceptable quality parameters. In short, RNA samples were sequenced with 2×100 paired-end reads by the NovaSeq 6000 system. Raw sequencing data (.bcl) was demultiplexed and converted to FASTQ files with DRAGEN Software (v3.9.5). The data was delivered in FASTQ format using Illumina 1.8 quality scores.
The quality of FASTQ files was assessed by FastQC (v0.11.9) software to ensure the quality of every sequenced sample. Kallisto (v0.48.0)16 was used to quantify the count and transcripts per million (TPM) values of transcripts based on the Homo sapiens reference cDNA (version GRCh38, Ensembl release 110). The transcript read counts and TPM values were assembled to gene level using the R package tximport (v1.28.0), with only protein-coding transcripts and genes included. The lowly expressed genes with an average count below 5 were filtered out, resulting in a total of 14,592 genes for the downstream analysis.
Differential expression analysis was conducted using the R package DESeq2 (v1.40.2) followed by the Benjamini-Hochberg procedure to correct p-values. […]

HepG2 cells [2] = assay: LDH cytotoxicity assay, time dependent; details: 10 μM, up to 4 days
Procedure: HepG2 cells were maintained and used with RPMI 1640 (R2405, Sigma-Aldrich) supplemented with 10% fetal bovine serum (F7524, Sigma-Aldrich), 1% P/S (P4333, Sigma-Aldrich). 20,000 cells per well of HepG2 cells were seeded into a 96-well plate and triplicated for MTT assay and LDH assay. Cell viability was measured by MTT assay (M6494, ThermoFisher) and cytotoxicity was measured by LDH assay kit (ab65393, abcam) by following manufacturer's instructions. Optical density (O.D) was numerated using a microplate reader (Hidex Sense Meta Plus).

HepG2 cells [3] = assay: DAPI and PI staining for necrotic cell death; details: 10 μM, 2 days
Procedure: HepG2 cells were treated with 10 μM of the JNK-IN-5A derivatives for 2 days and cells were stained with DAPI (Blue) and PI (Red) for 30 min, at live cells. PI positive necrotic cells were counted and plotted.

Caspase 3 = assay: Western blot, active caspase 3; details: 10 μM, 2 days
Procedure: as §1

PARP = assay: Western blot, cleaved PARP; details: 10 μM, 2 days
Procedure: as §1

GPX4 = assay: Western blot, GPX4; details: compared to the control
Procedure: as §1

p53 = assay: Nuclear protein western blot, p53; details: 10 μM, 2 days; compared to sorafenib and regorafenib
Procedure: as §1

## N#Cc1c(NC(=O)c2cccc3ccccc23)sc2c1CCCC2 [JNK-IN-5A, N-(3-cyano-4,5,6,7-tetrahydrobenzo[b]thiophen-2-yl)-1-naphthamide]
c-Myc
  nuclear c-Myc expression: significantly reduced

## COc1ccc(C(=O)Nc2sc3c(c2C#N)CCCCC3)cc1OC [PKL-A135, N-(3-cyano-5,6,7,8-tetrahydro-4H-cyclohepta[b]thiophen-2-yl)-3,4-dimethoxy-benzamide]
HepG2 cells [1]
  inhibition of cell cycle-related pathways (E2F targets, G2M checkpoint), GSEA: most potent inhibitor
  p53 pathways activity (PROGENy): significantly activated
HepG2 cells [2]
  necrotic cell death (LDH): pronounced necrotic cell death from day 1 to day 4
HepG2 cells [3]
  necrotic cell death (PI staining): significantly induced necrotic cell death
Caspase 3
  active caspase 3 levels: 11.85 times
PARP
  increase in cleaved PARP vs untreated control: 78.31 times
GPX4
  GPX4 expression levels: 0.58 times
p53
  nuclear-localized p53: significant increase

## N#Cc1c(NC(=O)c2cccc3ccccc23)sc2c1CCN(CC(=O)Nc1cccc(Br)c1)C2 [PKL-B171]
HepG2 cells [1]
  p53 pathways activity (PROGENy): significantly activated
HepG2 cells [2]
  necrotic cell death (LDH): pronounced late necrotic cell death from day 3 to 4
c-Myc
  nuclear c-Myc expression: most substantial decrease
HepG2 cells [3]
  necrotic cell death (PI staining): significantly induced necrotic cell death
Caspase 3
  active caspase 3 levels: 14.66 times
PARP
  increase in cleaved PARP vs untreated control: 87.97 times
GPX4
  GPX4 expression levels: 0.88 times
p53
  nuclear-localized p53: significant increase
